For orientation: IC50 means the concentration that gives 50% inhibition.

Test [1] deals with T1, hNav1.7 (Homo sapiens (Human), UniProt Q15858). Briefly: Tritiated compound binding to membranes from cells heterologously expressing hNav1.7 and the β1 subunit (Nav1.7 LBA). Particulars: competitive binding vs [3H]compound, membranes with hNav1.7 and β1 subunit; read-out: Nav1.7 LBA EVO IC50. How it is done: Example 93A. Tritiated Compound Binding to Membranes Isolated from Cells that Heterologously Express hNav1.7 and the β1 Subunit
Preparation of membranes containing recombinantly expressed sodium channels: Frozen recombinant cell pellets are thawed on ice and diluted to 4 times the cell pellet weight with ice cold 50 mM Tris HCl, pH 7.4 buffer. The cell suspensions are homogenized on ice using a motorized glass dounce homogeniser. Homogenates are further diluted 8.4 times with ice cold 50 mM Tris HCl, pH 7.4 buffer and then centrifuged at 200×g at 4° C. for 15 minutes. The supernatants are collected and centrifuged at 10000×g at 4° C. for 50 min. The pellets are then re-suspended in 100 mM NaCl, 20 mM Tris HCl, pH 7.4 buffer containing 1% v/v protease inhibitors (Calbiochem) and re-homogenized on ice. The homogenized membranes are then processed through a syringe equipped with a 26 gauge needle. Protein concentrations arer determined by Bradford Assay and the membranes are stored at −80° C.
Saturation experiments. A competitive NaV1.7 inhibitor having a methyl group is tritiated. Three tritiums are incorporated in place of methyl hydrogens to generate [^3H]compound. Binding of this radioligand is performed in 5 mL borosilicate glass test tubes at room temperature. Binding is initiated by adding membranes to increasing concentrations of [^3H]compound in 100 mM NaCl, 20 mM Tris HCl, pH 7.4 buffer containing 0.01% w/v bovine serum albumin (BSA) for 18 h. Non-specific binding is determined in the presence of 1 μM unlabeled compound. After 18 h, the reactants are filtered through GF/C glass fiber filters presoaked in 0.5% w/v polyethylene imine. Filters are washed with 15 mL ice cold 100 mM NaCl, 20 mM Tris HCl, pH7.4 buffer containing 0.25% BSA to separate bound from free ligand. [^3H]compound bound to filters is quantified by liquid scintillation counting.
Binding reactions are performed in 96-well polypropylene plates at room temperature for 18 h. In 360 μL, membranes are incubated with […] [^3H]compound and increasing concentrations of Test Compound. Non-specific binding is defined in the presence of 1 μM unlabeled compound. Reactions are transferred and filtered through 96-well glass fiber/C filter plates presoaked with 0.5% polyethylene imine. The filtered reactions are washed 5 times with 200 μL ice cold buffer containing 0.25% BSA. Bound radioactivity is determined by liquid scintillation counting.
Data Analysis: For saturation experiments, non-specific binding is subtracted from total binding to provide specific binding and these values are recalculated in terms of pmol ligand bound per mg protein. Saturation curves are constructed and dissociation constants are calculated using the single site ligand binding model: Beq=(Bmax*X)/(X+Kd), where Beq is the amount of ligand bound at equilibrium, Bmax is the maximum receptor density, Kd is the dissociation constant for the ligand, and X is the free ligand concentration. For competition studies percent inhibition is determined and IC50 values are calculated using a 4 parameter logistic model (% inhibition=(A+((B−A)/(1+((x/C)^D)))) using XLfit, where A and B are the maximal and minimum inhibition respectively, C is the IC50 concentration and D is the (Hill) slope.
Example 93B. Tritiated Compound Binding to Membranes Isolated from Cells that Heterologous Express hNav1.7 and the β1 Subunit
Following the procedure described in Example 93A, and making modifications as required to: centrifuge supernatants at 100000×g instead of 10000×g; re-suspend pellets in a buffer containing 0.01% BSA in addition to 100 mM NaCl, 20 mM Tris HCl, pH 7.4 buffer, and 1% v/v proteasome inhibitors; and storing membranes at −80° C. in single use aliquots instead of pooled. […]
Target sequence in this assay (Q15858 whole entry, looked up): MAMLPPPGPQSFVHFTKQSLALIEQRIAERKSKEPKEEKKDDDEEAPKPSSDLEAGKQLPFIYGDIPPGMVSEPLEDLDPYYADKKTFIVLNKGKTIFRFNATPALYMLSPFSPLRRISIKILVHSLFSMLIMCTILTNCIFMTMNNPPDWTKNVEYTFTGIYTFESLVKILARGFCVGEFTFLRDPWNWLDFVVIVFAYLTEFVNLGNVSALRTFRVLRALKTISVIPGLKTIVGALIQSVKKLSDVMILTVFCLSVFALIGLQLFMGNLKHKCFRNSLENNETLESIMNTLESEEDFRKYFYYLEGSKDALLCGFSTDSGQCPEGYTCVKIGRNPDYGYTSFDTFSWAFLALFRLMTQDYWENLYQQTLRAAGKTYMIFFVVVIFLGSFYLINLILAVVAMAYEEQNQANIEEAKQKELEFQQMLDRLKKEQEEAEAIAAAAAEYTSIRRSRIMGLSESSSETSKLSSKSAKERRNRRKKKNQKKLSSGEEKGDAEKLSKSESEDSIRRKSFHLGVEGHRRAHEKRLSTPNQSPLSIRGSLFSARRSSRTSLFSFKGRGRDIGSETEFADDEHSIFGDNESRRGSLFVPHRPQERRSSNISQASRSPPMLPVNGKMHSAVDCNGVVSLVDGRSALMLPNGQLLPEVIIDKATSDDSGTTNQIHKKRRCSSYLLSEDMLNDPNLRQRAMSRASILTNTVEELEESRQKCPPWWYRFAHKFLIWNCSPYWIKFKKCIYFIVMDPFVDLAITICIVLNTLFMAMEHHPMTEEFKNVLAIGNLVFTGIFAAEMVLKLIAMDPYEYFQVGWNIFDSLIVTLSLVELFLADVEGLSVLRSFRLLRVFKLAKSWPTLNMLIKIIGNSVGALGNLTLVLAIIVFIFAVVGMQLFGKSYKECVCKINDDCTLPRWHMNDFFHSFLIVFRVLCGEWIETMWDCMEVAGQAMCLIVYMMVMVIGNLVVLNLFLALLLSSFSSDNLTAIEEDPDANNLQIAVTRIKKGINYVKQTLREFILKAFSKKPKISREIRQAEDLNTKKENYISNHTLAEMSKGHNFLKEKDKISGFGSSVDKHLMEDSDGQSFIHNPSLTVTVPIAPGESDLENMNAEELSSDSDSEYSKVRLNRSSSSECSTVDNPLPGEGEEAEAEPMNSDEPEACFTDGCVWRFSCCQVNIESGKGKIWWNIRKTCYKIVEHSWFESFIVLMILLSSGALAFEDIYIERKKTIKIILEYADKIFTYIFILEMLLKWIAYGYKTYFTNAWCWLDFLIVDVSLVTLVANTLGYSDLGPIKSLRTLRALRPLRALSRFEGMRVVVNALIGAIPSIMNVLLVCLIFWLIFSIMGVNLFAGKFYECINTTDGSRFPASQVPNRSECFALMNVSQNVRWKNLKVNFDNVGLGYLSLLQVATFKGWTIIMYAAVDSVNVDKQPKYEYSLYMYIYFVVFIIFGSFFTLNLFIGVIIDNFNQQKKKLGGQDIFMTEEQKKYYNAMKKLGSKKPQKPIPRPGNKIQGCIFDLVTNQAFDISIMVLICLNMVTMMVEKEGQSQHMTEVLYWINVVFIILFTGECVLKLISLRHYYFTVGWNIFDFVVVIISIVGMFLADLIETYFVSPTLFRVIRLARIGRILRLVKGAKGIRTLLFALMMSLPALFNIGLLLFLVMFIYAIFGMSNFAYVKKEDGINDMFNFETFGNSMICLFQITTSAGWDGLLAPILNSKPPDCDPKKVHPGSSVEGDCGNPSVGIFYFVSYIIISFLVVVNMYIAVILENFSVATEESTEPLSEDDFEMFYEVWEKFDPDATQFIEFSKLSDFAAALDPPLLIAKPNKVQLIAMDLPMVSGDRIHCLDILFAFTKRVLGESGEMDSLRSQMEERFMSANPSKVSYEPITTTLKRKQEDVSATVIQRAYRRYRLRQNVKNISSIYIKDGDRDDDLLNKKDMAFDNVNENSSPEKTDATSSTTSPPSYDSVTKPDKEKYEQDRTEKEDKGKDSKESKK
Target sequence in this assay (Q07699 whole entry partner, looked up): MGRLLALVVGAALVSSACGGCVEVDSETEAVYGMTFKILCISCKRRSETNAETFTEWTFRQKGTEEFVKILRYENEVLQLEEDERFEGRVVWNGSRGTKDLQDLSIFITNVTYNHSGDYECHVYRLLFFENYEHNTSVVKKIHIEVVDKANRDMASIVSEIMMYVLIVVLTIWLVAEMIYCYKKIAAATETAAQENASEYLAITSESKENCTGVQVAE

In test [2] the target is T1, hNav1.7. Briefly: Electrophysiological assay (EP), voltage clamp on Syncropatch 384PE, CHO cells stably expressing Nav1.7. It is filed as cell-based. Particulars: holding potential −50 mV, 7.5 min compound incubation, read-out: EP_SP hNav1.7 EVO IC50. From the text:
Example 93C. Electrophysiological Assay (EP) (In Vitro Assay)
Patch voltage clamp electrophysiology allows for the direct measurement and quantification of block of voltage-gated sodium channels (NaV's), and allows the determination of the time- and voltage-dependence of block which has been interpreted as differential binding to the resting, open, and inactivated states of the sodium channel (Hille, B., Journal of General Physiology (1977), 69: 497-515).
The following voltage clamp electrophysiology studies are performed on representative compounds using cells heterologously expressing Nav1.7 or Nav1.5 channels. cDNAsfor Nav1.7 (NM_002977) and Nav1.5 (AC137587) are stably expressed in Chinese Hamstr Ovary (CHO) cells and CHL (Chinese Hamster Lung) cells respectively. Sodium currents are measured in the whole-cell configuration using Syncropatch 384PE (Nanlon Technologies, Germany). 1NPC®-384 chips with custom medium resistance and single hole mode are used. Internal solution consists of (in mM): […], 10 […], 20 EGTA, and 10 Hepes (pH adjusted to 7.2); and external solution contains (in mM): 60 NMDG, 80 NaCl, 4 KCl, 1 MgCl2, 2 CaCl2, 2 D-Glucose monohydrate, 10 Hepes (pH adjusted to 7.4 with NaOH).
After system flushing, testing compounds are dissolved in external solution containing 0.1% Pluronic F-127. The chip is moved into the measuring head and the instrument primes the chip with external and internal solutions. 10 μl cells are added to the chip from a cell hotel, and a negative pressure of −50 mBar is applied to form a seal. Following treatment with seal enhancer solution and wash-off with external solution, negative pressure of −250 mbar is applied for 1 second to achieve the whole-cell configuration, followed by three washing steps in external solution. 20 μl of compounds is added to 40 μl in each well (1:3 dilution of compounds), and after mixing, 20 μl is removed so the volume is retained at 40 μl. After approximately 13 minutes recordings, 20 μl/well of 2 uM TTX, or 333 uM Tetracaine (for Nav1.5) is added to achieve full block.
For voltage protocol, an holding potential of −50 mV is applied during the whole experiment. A depolarizing step is applied to −10 mV for 10 ms, followed by a hyperpolarization step to −150 mV for 20 ms to allow channel recovery from inactivation. A second depolarizing step is applied from −150 mV to −10 mV for 10 ms, where currents are measured to derive blocking effects of compounds. Inhibition is determined based on 7.5 min of compound incubation.
Target sequence in this assay (Q15858 other isoform, or with tags, fused parts or gaps): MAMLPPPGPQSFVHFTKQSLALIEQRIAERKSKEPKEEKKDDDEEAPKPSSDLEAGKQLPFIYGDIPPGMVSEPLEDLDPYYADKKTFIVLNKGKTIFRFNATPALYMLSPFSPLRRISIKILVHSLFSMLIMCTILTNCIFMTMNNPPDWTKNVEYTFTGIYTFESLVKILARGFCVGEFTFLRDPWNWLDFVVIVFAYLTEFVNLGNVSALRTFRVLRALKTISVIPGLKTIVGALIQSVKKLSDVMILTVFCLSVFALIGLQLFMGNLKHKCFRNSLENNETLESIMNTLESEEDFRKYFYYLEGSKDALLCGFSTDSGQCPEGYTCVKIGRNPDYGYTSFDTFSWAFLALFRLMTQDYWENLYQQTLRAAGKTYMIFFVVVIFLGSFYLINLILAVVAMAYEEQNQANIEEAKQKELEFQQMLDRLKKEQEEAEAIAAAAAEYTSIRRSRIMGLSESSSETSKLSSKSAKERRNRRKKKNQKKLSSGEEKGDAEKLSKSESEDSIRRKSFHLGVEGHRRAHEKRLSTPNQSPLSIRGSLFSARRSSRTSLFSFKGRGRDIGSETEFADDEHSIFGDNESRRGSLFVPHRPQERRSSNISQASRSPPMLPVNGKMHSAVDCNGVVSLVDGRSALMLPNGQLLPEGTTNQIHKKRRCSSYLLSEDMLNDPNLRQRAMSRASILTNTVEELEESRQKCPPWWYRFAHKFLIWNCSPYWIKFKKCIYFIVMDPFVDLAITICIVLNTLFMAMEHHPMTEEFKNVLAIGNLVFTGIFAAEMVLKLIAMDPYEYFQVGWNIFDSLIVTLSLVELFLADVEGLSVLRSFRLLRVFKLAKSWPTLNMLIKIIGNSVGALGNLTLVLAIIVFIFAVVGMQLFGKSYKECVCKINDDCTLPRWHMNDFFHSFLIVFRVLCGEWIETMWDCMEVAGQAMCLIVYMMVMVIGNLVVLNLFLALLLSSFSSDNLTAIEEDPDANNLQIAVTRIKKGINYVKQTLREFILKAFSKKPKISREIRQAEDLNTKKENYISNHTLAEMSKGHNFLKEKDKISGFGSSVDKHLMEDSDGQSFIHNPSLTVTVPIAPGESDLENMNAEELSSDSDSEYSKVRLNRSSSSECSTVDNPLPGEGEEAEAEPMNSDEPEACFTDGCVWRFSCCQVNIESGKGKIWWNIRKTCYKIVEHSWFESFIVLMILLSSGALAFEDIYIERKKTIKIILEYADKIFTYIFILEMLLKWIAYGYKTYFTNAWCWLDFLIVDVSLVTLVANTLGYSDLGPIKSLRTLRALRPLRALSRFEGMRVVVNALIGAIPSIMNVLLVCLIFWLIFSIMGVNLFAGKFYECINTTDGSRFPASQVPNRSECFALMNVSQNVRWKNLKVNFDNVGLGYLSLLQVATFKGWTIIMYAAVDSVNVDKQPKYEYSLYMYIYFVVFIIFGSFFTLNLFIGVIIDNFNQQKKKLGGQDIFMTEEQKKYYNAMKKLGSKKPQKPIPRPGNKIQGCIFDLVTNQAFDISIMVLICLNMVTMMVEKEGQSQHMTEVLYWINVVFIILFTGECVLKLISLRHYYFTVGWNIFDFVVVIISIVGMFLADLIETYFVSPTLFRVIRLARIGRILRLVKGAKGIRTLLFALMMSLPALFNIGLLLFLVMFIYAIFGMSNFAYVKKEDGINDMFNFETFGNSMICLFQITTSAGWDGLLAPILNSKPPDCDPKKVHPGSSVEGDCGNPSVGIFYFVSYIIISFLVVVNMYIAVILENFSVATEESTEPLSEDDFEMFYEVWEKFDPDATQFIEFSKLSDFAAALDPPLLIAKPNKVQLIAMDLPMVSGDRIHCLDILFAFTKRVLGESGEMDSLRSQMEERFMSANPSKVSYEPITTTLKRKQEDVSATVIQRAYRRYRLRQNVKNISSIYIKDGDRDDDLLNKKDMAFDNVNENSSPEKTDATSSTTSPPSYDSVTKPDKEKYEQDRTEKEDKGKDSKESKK
(The patch-clamp technique gives a direct electrical read-out from membranes.)

Structures can show the parent of a compound that is named as a salt.

Take “5-Chloro-4-(((3 S,4S,6S)-7,7-dichloro-4-(dimethylamino)-6-(3-(trifluoromethyl)phenyl)-bicyclo[4.1.0]heptan-3-yl)amino)-2-fluoro-N-(pyrimidin-4-yl)benzenesulfonamide [Example 52]”: the IC50 in test [1] amounted to 2000 nM; in test [2], 496 nM.
For `CN1CC(C(=O)N(C)[C@H]2C[C@@H](c3cccc(C(F)(F)F)c3)CC[C@@H]2Nc2cc(F)c(S(=O)(=O)Nc3ccncn3)cc2Cl)C1` [Example 39, N-((1S,2S,5S)-2-((2-Chloro-5-fluoro-4-(N-(pyrimidin-4-yl)sulfamoyl)phenyl)amino)-5-(3-(trifluoromethyl)phenyl)cyclohexyl)-N,1-dimethylazetidine-3-carboxamide] the same measures were 2.07 nM and 0.83 nM.
Turning to `CN(C)[C@H]1C[C@@H](c2cc(C(F)(F)F)cc(C(F)(F)F)c2)CC[C@@H]1Nc1cc(F)c(S(=O)(=O)Nc2ccncn2)cc1F` [Example 13, 4-(((1S,2S,4S)-4-(3,5-bis(trifluoromethyl)phenyl)-2-(dimethylamino)cyclohexyl)amino)-2,5-difluoro-N-(pyrimidin-4-yl)benzenesulfonamide], the figures for the IC50 in test [1] and in test [2] were 1.36 nM and 0.652 nM, respectively.
The like results for `CN1CC[C@H](C(=O)N(C)[C@H]2C[C@@H](c3cccc(C(F)(F)F)c3)CC[C@@H]2Nc2cc(F)c(S(=O)(=O)Nc3ccncn3)cc2Cl)C1` [Example 33, (S)—N-((1S,2S,5S)-2-((2-chloro-5-fluoro-4-(N-(pyrimidin-4-yl)sulfamoyl)phenyl)amino)-5-(3-(trifluoromethyl)phenyl)cyclohexyl)-N,1-dimethylpyrrolidine-3-carboxamide] were, in that order, 2.45 nM and 0.629 nM.
The like results for “4-(((1S,2S,4S)-2-(azetidin-3-yl(methyl)amino)-4-(3-(trifluoromethyl)phenyl)cyclohexyl)oxy)-5-chloro-2-fluoro-N-(pyrimidin-4-yl)benzenesulfonamide [Example 80]” were, in that order, 0.39 nM and 0.317 nM.
In the case of `CN[C@H]1C[C@@H](c2cccc(C(F)(F)F)c2)CC[C@@H]1Oc1cc(F)c(S(=O)(=O)Nc2ccncn2)cc1Cl` [Example 63, 5-chloro-2-fluoro-4-(((1S,2S,4S)-2-(methylamino)-4-(3-(trifluoromethyl)phenyl)-cyclohexyl)oxy)-N-(pyrimidin-4-yl)benzenesulfonamide], the IC50 in test [1] was 11.2 nM; in test [2], 0.709 nM.
Take `CN1CC[C@@H](C(=O)N(C)[C@H]2C[C@@H](c3cccc(C(F)(F)F)c3)CC[C@@H]2Nc2cc(F)c(S(=O)(=O)Nc3ccncn3)cc2Cl)C1` [Example 34, (R)—N-((1S,2S,5S)-2-((2-Chloro-5-fluoro-4-(N-(pyrimidin-4-yl)sulfamoyl)phenyl)amino)-5-(3-(trifluoromethyl)phenyl)cyclohexyl)-N,1-dimethylpyrrolidine-3-carboxamide]: the IC50 worked out at 2.6 nM in test [1] and 0.672 nM in test [2].
On to `CN(C)[C@H]1C[C@@H](c2cccc(C(F)(F)F)c2)CC[C@@H]1N1CCOc2cc(S(=O)(=O)Nc3ccncn3)c(F)cc21` [Example 2, 4-((1S,2S,4S)-2-(Dimethylamino)-4-(3-(trifluoromethyl)phenyl)cyclohexyl)-6-fluoro-N-(pyrimidin-4-yl)-3,4-dihydro-2H-benzo[b][1,4]oxazine-7-sulfonamide formate], for which the IC50 worked out at 0.686 nM in test [1] and 1.01 nM in test [2].
As to `CN(C)[C@H]1C[C@@H](c2cccc(C(F)(F)F)c2)CC[C@@H]1Oc1ccc(S(=O)(=O)Nc2ccncn2)cc1F` [Example 79, 4-(((1S,2S,4S)-2-(Dimethylamino)-4-(3-(trifluoromethyl)phenyl)cyclohexyl)oxy)-3-fluoro-N-(pyrimidin-4-yl)benzenesulfonamide], the values for the IC50 in test [1] and in test [2] were 223 nM and 18 nM, respectively.
The like results for `CN(C1CNC1)[C@H]1C[C@@H](c2cccc(C(F)(F)F)c2)CC[C@@H]1Nc1cc(F)c(S(=O)(=O)Nc2ccncn2)cc1Cl` [Example 42, 4-(((1S,2S,4S)-2-(azetidin-3-yl(methyl)amino)-4-(3-(trifluoromethyl)phenyl)cyclohexyl)-amino)-5-chloro-2-fluoro-N-(pyrimidin-4-yl)benzenesulfonamide] were, in that order, 0.657 nM and 0.141 nM.
As to `CN1CC(N(C)[C@H]2C[C@@H](c3cccc(C(F)(F)F)c3)CC[C@@H]2Oc2cc(F)c(S(=O)(=O)Nc3ccncn3)cc2Cl)C1` [Example 81, 5-chloro-2-fluoro-4-(((1S,2S,4S)-2-(methyl(1-methylazetidin-3-yl)amino)-4-(3-(trifluoromethyl)phenyl)cyclohexyl)oxy)-N-(pyrimidin-4-yl)benzenesulfonamide formate], the results for the IC50 in test [1] and in test [2] were 0.661 nM and 0.334 nM, respectively.
In the case of `CN(C)[C@H]1C[C@@H](c2cccc(-c3cnn(C)c3)c2)CC[C@@H]1Nc1cc(F)c(S(=O)(=O)Nc2ccncn2)cc1Cl` [Example 22], the IC50 was 21.2 nM in test [1] and 19.4 nM in test [2].
For `CN(CCO)[C@H]1C[C@@H](c2cccc(C(F)(F)F)c2)CC[C@@H]1Nc1cc(F)c(S(=O)(=O)Nc2ccncn2)cc1Cl` [Example 41, 5-chloro-2-fluoro-4-(((1S,2S,4S)-2-((2-hydroxyethyl)(methyl)amino)-4-(3-(trifluoromethyl)-phenyl)cyclohexyl)amino)-N-(pyrimidin-4-yl)benzenesulfonamide], the IC50 turned out to be 0.623 nM in test [1] and 0.534 nM in test [2].
For `O=S(=O)(Nc1ccncn1)c1cc(F)c(N[C@H]2CC[C@H](c3cccc(OC(F)(F)F)c3)C[C@@H]2N2CCCC2)cc1F` [Example 61, 2,5-difluoro-N-(pyrimidin-4-yl)-4-(((1S,2S,4S)-2-(pyrrolidin-1-yl)-4-(3-(trifluoromethoxy)-phenyl)cyclohexyl)amino)benzenesulfonamide formate] the same measures were 1.54 nM and 0.322 nM.

Values taken from US11028075B2, “Therapeutic compounds and methods of use thereof” (GENENTECH, INC., priority 2018, dated 2021).
